Measurements: patent US7737119B2, “Cosmetic or pharmaceutical composition comprising peptides, uses and treatment processes” (Societe d'Extraction des Principes Actifs S.A., priority 2002, dated 2010)
One block for each substance: values may come before it. Where no end group is shown, it is not given here.

Assays:
[1] = tested on: β1 integrin; assay: Immunofluorescence study of β1 integrin expression in HaCat human keratinocytes; assay type: cell-based; details: 48 hours
Experimental: (§1) Human fibroblasts are plated in Labteks then cultured for one night. After rinsing with HBS buffer, a composition containing 1% of a solution at 100 ppm of the peptide SEQ ID NO: 5, or a control composition containing no peptide, is added. The cells are then incubated for 48 hours. After performing the elimination of the supernatants and rinsing the cultures, the cells are fixed with paraformaldehyde for 30 minutes at 4° C. then rinsed with PBS buffer.
(§2) 200 μL of anti-fibronectin antibody or anti-collagen I, or anti-collagen III polyclonal antibody obtained in the rabbit (TEBU) are then added. Incubation lasts 30 minutes at room temperature. The supernatants are eliminated and the cells are rinsed with PBS. 200 μL of secondary antibody, coupled to a fluorescent marker (Alexa-fluor 488) are then added. After 30 minutes of incubation at room temperature, the supernatants are eliminated and the cells are rinsed with the PBS.
(§3) The slides are then assembled and examined under epi-fluorescence microscope (Nikon Eclipse E600). The quantities of fibronectine and/or collagen of the type I and III, synthesized by the cells, are proportional to fluorescence intensity.
(§4) A study by immunofluorescence technique, identical to that of example 3, was performed on HaCat human keratinocytes, with anti-laminin-5 antibodies and/or β1 anti-integrin antibodies.

[2] = tested on: laminin-5; assay: Immunofluorescence study of laminin-5 expression in HaCat human keratinocytes; assay type: cell-based; details: 48 hours
Experimental: as §1, §2, §3, §4

[3] = tested on: fibronectin; assay: Immunofluorescence study of fibronectin expression in human fibroblasts; assay type: cell-based; details: 1% of a solution at 100 ppm of peptide, 48 hours
Experimental: (§5) The immunofluorescence is a semi-quantitative technique which makes it possible to appreciate the rate of each protein present in the cellular cytoplasm.
as §1, §2, §3

[4] = tested on: type I collagen; assay: Immunofluorescence study of type I collagen expression in human fibroblasts; assay type: cell-based; details: 1% of a solution at 100 ppm of peptide, 48 hours
Experimental: as §5, §1, §2, §3

[5] = tested on: type III collagen; assay: Immunofluorescence study of type III collagen expression in human fibroblasts; assay type: cell-based; details: 1% of a solution at 100 ppm of peptide, 48 hours
Experimental: as §5, §1, §2, §3

[6] = tested on: keratin; assay: Immunofluorescence study of keratin expression in ex vivo human skin samples; assay type: cell-based; details: 48 hours
Experimental: as §1, §2, §3
A study by immunofluorescence technique, identical to that of Example 3, was performed on ex vivo human skin samples, with anti-keratin monoclonal antibody (Novocastra).

[7] = tested on: keratinocytes; assay: Adhesion between cutaneous cells, MTT reading of adherent keratinocytes in 96 well micro-plates; assay type: cell-based; details: after 3 hours of contact with the keratinocytes; compared with the other peptides tested
Experimental: The study is performed in 96 well micro-plates on keratinocytes cultured in an incubator at 37° C. and 5% of CO2.
The wells are pre-treated during 12 hours in a different way; four conditions are thus performed: • Condition A: negative control, containing no peptide; • Condition B: incubated with various peptides, made of 3 to 25 amino acids (from the extracellular matrix), with a concentration from 5 to 50 ppm; • Condition C: incubated with the peptide of sequence Arg-Asp-Phe-Thr-Lys-Ala-Thr-Asn-Ile-Arg-Leu-Arg-Phe-Leu-Arg (SEQ ID NO: 3) to a concentration of 5 ppm.
After 3 hours of contact with the keratinocytes, the wells are completely filled with culture medium, hermetically closed, turned over and agitated on a three-dimensional agitator during 20 minutes. Then the plates are emptied and the medium remaining is aspired. 100 μl of MTT with 1 mg/ml per well is added and is left during 3 hours at 37° C. and 5% of CO2. The solution is finally withdrawn and 100 μl of DMSO is added. A reading of C is made at 560 nm against 630 nm.
The results present the various Optical Density (O.D.) obtained according to the various conditions. The O.D. is proportional to the quantity of viable cells, that is to say those which adhered to the micro-plates.

[8] = tested on: fibroblasts as well as human keratinocytes in culture; assay: Peptide applied to cells in culture, HPLC analysis of the culture medium; assay type: cell-based; details: peptide applied to fibroblasts and human keratinocytes in culture, in a few hours
Experimental: A test is performed by applying the peptide to fibroblasts as well as to human keratinocytes in culture.

[9] = Stability of peptide in solution by HPLC (C18) at various temperatures; assay type: physicochemical; details: 10^−4 M
Experimental: Peptide SEQ ID NO: 3 Arg-Asp-Phe-Thr-Lys-Ala-Thr-Asn-Ile-Arg-Leu-Arg-Phe-Leu-Arg was analyzed with a concentration of 10^−4 M by HPLC on a C18 type column, and with a linear gradient water/TFA 0.1%-acetonitrile/TFA 0.1%.

[10] = Stability of peptide in culture medium conditioned by human fibroblasts and keratinocytes (released enzymes of degradation); assay type: in vitro ADME; details: after 24 hours in culture medium withdrawn from human fibroblasts and keratinocytes cultured 24 hours at 37° C.
Experimental: Human fibroblasts and keratinocytes were cultured during 24 hours at 37° C. and to 5% of CO2. For this period, the cells will release numerous enzymes of degradation in the culture medium. Thereafter, the culture medium is withdrawn to be put in the presence of peptide.

Substance: Ile-Arg-Leu-Arg-Phe-Leu-Arg-NH2 (IRLRFLR-NH2) [SEQ ID NO: 5]
β1 integrin synthesis (fluorescence intensity) [1]: increase
laminin-5 synthesis (fluorescence intensity) [2]: increase
fibronectin synthesis (fluorescence intensity) [3]: increases
type I collagen synthesis (fluorescence intensity) [4]: increases
type III collagen synthesis (fluorescence intensity) [5]: increases

Substance: IRLRFLR [SEQ ID NO: 4]
keratin expression (fluorescence intensity) [6]: increases

Substance: DFTKATNIRLRFLR [SEQ ID NO: 11]
cell adhesion [7]: very good cell adhesion

peptide concentration in the culture medium [8]: decreases quickly
degradation of the peptide ([9]; after 24 hours at 25° C., 37° C. and 60° C.): no degradation
degradation of the peptide ([9]; after 8 days at 25° C.): does not present degradation
degradation of the peptide [10]: almost no degradation
Substance: RDFTKATNIRLRFLR [SEQ ID NO: 3, Arg-Asp-Phe-Thr-Lys-Ala-Thr-Asn-Ile-Arg-Leu-Arg-Phe-Leu-Arg]
